These results are taken from patent US9499550B2 (BRISTOL-MYERS SQUIBB COMPANY, priority 2012, dated 2016).

Each structure is given as a SMILES string.

Assay [1] concerns HCV genotype 1b (Con1) replicon in HUH-7 cells. The assay can be described thus: HCV replicon luciferase reporter assay, genotype 1b. Format: cell-based. The note with it: Hepatitis C virus, Huh-7, 72 h, HCV genotype 1b replicon luciferase, 3 days incubation, read-out: LE_1b (EC50, range). An outline of the steps:
(§1)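 Replicon inhibition for both genotypes was measured as Renilla luciferase signal (EnduRen, 7.5 μM final, 2 h) after 3-day, 37° C exposure of replicon-bearing HUH-7 cells in 4% FCS DMEM, 0.5% DMSO. The 1b construct carries S1179I; the 1a H77 construct carries P1496L and S2204I. Twenty-point, 3-fold dilutions were fitted four-parametrically for EC50, and CC50 was taken from multiplexed Cell Titer-Blue.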

The test system of assay [2] is HCV genotype 1a (H77 strain) replicon in HUH-7 cells. Description: HCV replicon luciferase reporter assay, genotype 1a. The note with it: Hepatitis C virus, Huh-7, 72 h, HCV genotype 1a replicon luciferase, 3 days incubation, read-out: LE_1a (EC50, range). Format: cell-based. An outline of the steps:
as §1

In the case of `CCCOc1ccc2c(O[C@@H]3C[C@H]4C(=O)N[C@]5(C(=O)NS(=O)(=O)C6CC6)C[C@H]5/C=C\CC[C@@H](C)C[C@@H](C)[C@H](NC(=O)OC(C)(C)C(F)(F)F)C(=O)N4C3)nccc2c1` [Compound 5171, 1,1,1-trifluoro-2-methylpropan-2-yl((2R,6S,7R,9R,13aS,14aR,16aS,Z)-14a-((cyclopropylsulfonyl)carbamoyl)-7,9-dimethyl-5,16-dioxo-2-((6-propoxyisoquinolin-1-yl)oxy)-1,2,3,5,6,7,8,9,10,11,13a,14,14a,15,16,16a-hexadecahydrocyclopropa[e]pyrrolo[1,2-a][1,4]diazacyclopentadecin-6-yl)carbamate], the concentration giving a half-maximal response (EC50) in assay [1] and in assay [2] was less than 5.46 nM in each case.
As to `[2H]C([2H])([2H])C(OC(=O)N[C@@H]1C(=O)N2C[C@H](Oc3nccc4cc(OCCC)ccc34)C[C@H]2C(=O)N[C@]2(C(=O)NS(=O)(=O)C3CC3)C[C@H]2/C=C\CC[C@H](C)C[C@H]1C)(C([2H])([2H])[2H])C(F)(F)F` [Compound 5172], the EC50 in assay [1] is less than 5.46 nM; in assay [2] it was 4.82 to 103 nM.
Taken in the same sequence, the figures for `[2H]C([2H])([2H])C(OC(=O)N[C@@H]1C(=O)N2C[C@H](Oc3nccc4cc(OCCC)ccc34)C[C@H]2C(=O)N[C@]2(C(=O)NS(=O)(=O)C3CC3)C[C@H]2/C=C\CC[C@@H](C)C[C@H]1C)(C([2H])([2H])[2H])C(F)(F)F` [Compound 5173] were less than 5.46 nM and less than 5.46 nM.
Regarding `[2H]C([2H])([2H])C(OC(=O)N[C@@H]1C(=O)N2C[C@H](Oc3nccc4cc(OC)ccc34)CC2C(=O)N[C@]2(C(=O)NS(=O)(=O)C3(C)CC3)C[C@H]2/C=C\CC[C@H](C)C[C@H]1C)(C([2H])([2H])[2H])C(F)(F)F` (stereo partly drawn) [Compound 5174, 1,1,1,3,3,3-hexadeutero-2-(trifluoromethyl)propan-2-yl((2R,6S,7R,9S,13aS,14aR,16aS,Z)-2-((6-methoxyisoquinolin-1-yl)oxy)-7,9-dimethyl-14a-(((1-methylcyclopropyl)sulfonyl)carbamoyl)-5,16-dioxo-1,2,3,5,6,7,8,9,10,11,13a,14,14a,15,16,16a-hexadecahydrocyclopropa[e]pyrrolo[1,2-a][1,4]diazacyclopentadecin-6-yl)carbamate], the concentration giving a half-maximal response (EC50) in assay [1] and in assay [2] was less than 5.46 nM in each case.
Regarding `[2H]C([2H])([2H])C(OC(=O)N[C@@H]1C(=O)N2C[C@H](Oc3nccc4cc(OC)ccc34)CC2C(=O)N[C@]2(C(=O)NS(=O)(=O)C3(C)CC3)C[C@H]2/C=C\CC[C@@H](C)C[C@H]1C)(C([2H])([2H])[2H])C(F)(F)F` (stereo partly drawn) [Compound 5175, 1,1,1,3,3,3-hexadeutero-2-(trifluoromethyl)propan-2-yl((2R,6S,7R,9R,13aS,14aR,16aS,Z)-2-((6-methoxyisoquinolin-1-yl)oxy)-7,9-dimethyl-14a-(((1-methylcyclopropyl)sulfonyl)carbamoyl)-5,16-dioxo-1,2,3,5,6,7,8,9,10,11,13a,14,14a,15,16,16a-hexadecahydrocyclopropa[e]pyrrolo[1,2-a][1,4]diazacyclopentadecin-6-yl)carbamate], the EC50 in assay [1] and in assay [2] was less than 5.46 nM each time.
For the compound `[2H]C([2H])([2H])C(C)(OC(=O)N[C@@H]1C(=O)N2C[C@H](Oc3nccc4cc(OC)ccc34)CC2C(=O)N[C@]2(C(=O)NS(=O)(=O)C3(C)CC3)C[C@H]2/C=C\CC[C@H](C)C[C@H]1C)C([2H])([2H])[2H]` (stereo partly drawn) [Compound 5176, 1,1,1,3,3,3-hexadeutero-2-methylpropan-2-yl((2R,6S,7R,9S,13aS,14aR,16aS,Z)-2-((6-methoxyisoquinolin-1-yl)oxy)-7,9-dimethyl-14a-(((1-methylcyclopropyl)sulfonyl)carbamoyl)-5,16-dioxo-1,2,3,5,6,7,8,9,10,11,13a,14,14a,15,16,16a-hexadecahydrocyclopropa[e]pyrrolo[1,2-a][1,4]diazacyclopentadecin-6-yl)carbamate], the values for the EC50 in assay [1] and in assay [2] were less than 5.46 nM and 4.82 to 103 nM, respectively.
Taken in the same sequence, the figures for `[2H]C([2H])([2H])C(C)(OC(=O)N[C@@H]1C(=O)N2C[C@H](Oc3nccc4cc(OC)ccc34)CC2C(=O)N[C@]2(C(=O)NS(=O)(=O)C3(C)CC3)C[C@H]2/C=C\CC[C@@H](C)C[C@H]1C)C([2H])([2H])[2H]` (stereo partly drawn) [Compound 5177, 1,1,1,3,3,3-hexadeutero-2-methylpropan-2-yl((2R,6S,7R,9R,13aS,14aR,16aS,Z)-2-((6-methoxyisoquinolin-1-yl)oxy)-7,9-dimethyl-14a-(((1-methylcyclopropyl)sulfonyl)carbamoyl)-5,16-dioxo-1,2,3,5,6,7,8,9,10,11,13a,14,14a,15,16,16a-hexadecahydrocyclopropa[e]pyrrolo[1,2-a][1,4]diazacyclopentadecin-6-yl)carbamate] were less than 5.46 nM and less than 5.46 nM.
`COc1ccc2c(O[C@@H]3C[C@H]4C(=O)N[C@]5(C(=O)NS(=O)(=O)C6(C)CC6)C[C@H]5/C=C\CC[C@H](C)C[C@@H](C)[C@H](NC(=O)NC(C)(C)C)C(=O)N4C3)nccc2c1` [Compound 5178, (2R,6S,7R,9S,13aS,14aR,16aS,Z)-6-(3-(tert-butyl)ureido)-2-((6-methoxyisoquinolin-1-yl)oxy)-7,9-dimethyl-N-((1-methylcyclopropyl)sulfonyl)-5,16-dioxo-1,2,3,5,6,7,8,9,10,11,13a,14,14a,15,16,16a-hexadecahydrocyclopropa[e]pyrrolo[1,2-a][1,4]diazacyclopentadecine-14a-carboxamide]: the half-maximal effective concentration (EC50) was less than 5.46 nM in assay [1] and 4.82 to 103 nM in assay [2].
For the compound `COc1ccc2c(O[C@@H]3C[C@H]4C(=O)N[C@]5(C(=O)NS(=O)(=O)C6(C)CC6)C[C@H]5/C=C\CC[C@@H](C)C[C@@H](C)[C@H](NC(=O)NC(C)(C)C)C(=O)N4C3)nccc2c1` [Compound 5179, (2R,6S,7R,9R,13aS,14aR,16aS,Z)-6-(3-(tert-butyl)ureido)-2-((6-methoxyisoquinolin-1-yl)oxy)-7,9-dimethyl-N-((1-methylcyclopropyl)sulfonyl)-5,16-dioxo-1,2,3,5,6,7,8,9,10,11,13a,14,14a,15,16,16a-hexadecahydrocyclopropa[e]pyrrolo[1,2-a][1,4]diazacyclopentadecine-14a-carboxamide], the EC50 in assay [1] and in assay [2] was less than 5.46 nM each time.
For the compound `COc1ccc2c(O[C@@H]3C[C@H]4C(=O)N[C@]5(C(=O)NS(=O)(=O)C6(C)CC6)C[C@H]5/C=C\CC[C@H](C)C[C@@H](C)[C@H](NC(=O)c5ccc(N(C)C)cc5)C(=O)N4C3)nccc2c1` [Compound 5180, (2R,6S,7R,9S,13aS,14aR,16aS,Z)-6-(4-(dimethylamino)benzamido)-2-((6-methoxyisoquinolin-1-yl)oxy)-7,9-dimethyl-N-((1-methylcyclopropyl)sulfonyl)-5,16-dioxo-1,2,3,5,6,7,8,9,10,11,13a,14,14a,15,16,16a-hexadecahydrocyclopropa[e]pyrrolo[1,2-a][1,4]diazacyclopentadecine-14a-carboxamide], the EC50 in assay [1] and in assay [2] was less than 5.46 nM throughout.
`COc1ccc2c(O[C@@H]3C[C@H]4C(=O)N[C@]5(C(=O)NS(=O)(=O)C6(C)CC6)C[C@H]5/C=C\CC[C@@H](C)C[C@@H](C)[C@H](NC(=O)c5ccc(N(C)C)cc5)C(=O)N4C3)nccc2c1` [Compound 5181, (2R,6S,7R,9R,13aS,14aR,16aS,Z)-6-(4-(dimethylamino)benzamido)-2-((6-methoxyisoquinolin-1-yl)oxy)-7,9-dimethyl-N-((1-methylcyclopropyl)sulfonyl)-5,16-dioxo-1,2,3,5,6,7,8,9,10,11,13a,14,14a,15,16,16a-hexadecahydrocyclopropa[e]pyrrolo[1,2-a][1,4]diazacyclopentadecine-14a-carboxamide]: the EC50 in assay [1] and in assay [2] was less than 5.46 nM throughout.
`C[C@H]1CC/C=C\[C@@H]2C[C@@]2(C(=O)NS(=O)(=O)C2CC2)NC(=O)[C@@H]2C[C@@H](Oc3nc4ccccc4c4ccccc34)CN2C(=O)[C@@H](NC(=O)OC(C)(C)C)[C@H](C)C1` [Compound 5182, tert-butyl ((2R,6S,7R,9S,13aS,14aR,16aS,Z)-14a-((cyclopropylsulfonyl)carbamoyl)-7,9-dimethyl-5,16-dioxo-2-(phenanthridin-6-yloxy)-1,2,3,5,6,7,8,9,10,11,13a,14,14a,15,16,16a-hexadecahydrocyclopropa[e]pyrrolo[1,2-a][1,4]diazacyclopentadecin-6-yl)carbamate]: the concentration giving a half-maximal response (EC50) in assay [1] and in assay [2] was less than 5.46 nM each time.
Turning to `C[C@@H]1CC/C=C\[C@@H]2C[C@@]2(C(=O)NS(=O)(=O)C2CC2)NC(=O)[C@@H]2C[C@@H](Oc3nc4ccccc4c4ccccc34)CN2C(=O)[C@@H](NC(=O)OC(C)(C)C)[C@H](C)C1` [Compound 5183, tert-butyl ((2R,6S,7R,9R,13aS,14aR,16aS,Z)-14a-((cyclopropylsulfonyl)carbamoyl)-7,9-dimethyl-5,16-dioxo-2-(phenanthridin-6-yloxy)-1,2,3,5,6,7,8,9,10,11,13a,14,14a,15,16,16a-hexadecahydrocyclopropa[e]pyrrolo[1,2-a][1,4]diazacyclopentadecin-6-yl)carbamate], the half-maximal effective concentration (EC50) in assay [1] and in assay [2] was less than 5.46 nM throughout.
With `C[C@@H]1CC/C=C\[C@@H]2C[C@@]2(C(=O)NS(=O)(=O)C2CC2)NC(=O)C2C[C@@H](Oc3nc4ccccc4c4ccccc34)CN2C(=O)[C@@H](NC(=O)OC(C)(C)C(F)(F)F)[C@H](C)C1` (stereo partly drawn) [Compound 5185, 1,1,1-trifluoro-2-methylpropan-2-yl((2R,6S,7R,9R,13aS,14aR,16aS,Z)-14a-((cyclopropylsulfonyl)carbamoyl)-7,9-dimethyl-5,16-dioxo-2-(phenanthridin-6-yloxy)-1,2,3,5,6,7,8,9,10,11,13a,14,14a,15,16,16a-hexadecahydrocyclopropa[e]pyrrolo[1,2-a][1,4]diazacyclopentadecin-6-yl)carbamate], the concentration giving a half-maximal response (EC50) in assay [1] and in assay [2] was less than 5.46 nM in each case.
